These are literature values, as cited in US20220280447A1, “COMPOSITIONS AND METHODS FOR IMPROVING BRAIN FUNCTION” (HEALTH VIA MODERN NUTRITION INC., priority 2021, published 2022).

Read-outs that look alike come from different tables or passages of the source.

For data set [1] the following is noted: rats fed diet supplemented as 30% of calories.
For data set [2] the following is noted: animal studies.
The subject of data set [3] is reactive oxygen species (ROS) production by mitochondria. The conditions noted are these: in vitro.
In another data set the test system is NF-icB activation. As to conditions: in vitro.
For data set [4] the following is noted: children.
The conditions of data set [5]: in vitro studies.
For data set [6] the following is noted: Alzheimer's disease transgenic mice.
The conditions of data set [7]: Schizophrenia-like rat model.
For data set [8] the following is noted: animal models.
The conditions of data set [9]: teenagers with social anxiety disorders.
The conditions of data set [10]: 20-month oral administration, patient with Alzheimer's disease dementia.

Consider `C[C@@H](O)CCOC(=O)C[C@@H](C)O` [(R)-3-hydroxyburyl (R)-3-hydroxybutyrate], for which the “cognitive and physical performance” value in [1] is “improved cognitive and physical performance”.

Consider `C=C(C)[C@@H]1CCC(C)=C[C@H]1c1c(O)cc(CCCCC)cc1O` [CBD, cannabidiol], for which the anti-inflammatory properties result in data set [2] is “strong anti-inflammatory properties”. Also, the “reactive oxygen species (ROS) production by mitochondria” value in data set [3] is “inhibits”. In addition, the NF-icB activation entry in the data set with NF-icB activation is “inhibits”. The “treatment of certain seizure disorders” value in data set [4] was “effective”. The “effect on adenosine A1 receptors” value in the data set on adenosine A1 receptors was “affect adenosine A1 receptors”. Further, the anti-inflammatory properties entry in [5] is reported as “strong anti-inflammatory properties”. For the same compound, the “development of a social recognition deficit” value in [6] is recorded as “prevent the development of a social recognition deficit”. Further, in data set [7], the cognitive impairment result is given as “improve cognitive impairment” and the cortical transcriptional changes result was “reverse cortical transcriptional changes”. In data set [8], the “anti-anxiety and antidepressant effects” value was “anti-anxiety and antidepressant effects”. The anxiolytic effect entry in [9] is listed as “anxiolytic effect”.

For the compound `C[C@@H](O)CCOC(=O)C[C@@H](C)O` [ketone monoester], the “mood, affect, self-care, cognitive and daily activity performance” value in data set [10] was “improved markedly”.
